According to patent US10822346B2, “Meglumine salts of thienopyrimidines” (Cardurion Pharmaceuticals, LLC, priority 2018, dated 2020):

Assays:
[1] = Hygroscopicity by Dynamic Vapor Sorption; assay type: physicochemical; conditions: for Hygroscopicity: DVS weight gain: Dynamic Vapor Sorption @ 25° C./95% RH
Description: (§1) Initial studies identified thienopyrimidine carboxylic acids as PDE9 inhibitors which could be used to treat or prevent HF. […] In further studies, the potassium salt was identified as a candidate for formulation because it was soluble, provided high exposure in preclinical toxicology studies, and was relatively easy to scale up. […] Unexpectedly the monohydrate crystalline meglumine salt of the thienopyrimidine compounds afforded the desired properties for a pharmaceutical formulation, as shown in Table 5.

[2] = Solid form stability on drying under vacuum; assay type: physicochemical; conditions: crystalline salts; crystal form after drying
Description: as §1

[3] = Dog pharmacokinetic study; assay type: in vivo, dogs; conditions: for AUClast / Cmax / Tmax: healthy dogs, N = 4 animals/arm, fasted overnight, pentagastrin 30 min prior to dosing, mean plasma profile
Description: Healthy dogs were used to study different salt candidates to evaluate the pharmacokinetic profile of each candidate. Six treatment arms were employed:
Animals were fasted overnight with free access to water. Pentagastrin (PG) (6 μg/kg, IM) was administered 30 min prior to dosing. Food was resumed 4 h post dose.

[4] = Solubility in pharmaceutically acceptable formulation; assay type: physicochemical; conditions: in any pharmaceutically acceptable formulation
Description: as §1

[5] = Exposure in preclinical toxicology studies; conditions: in vivo
Description: as §1

Compound | Hygroscopicity: DVS weight gain [1] | Stability: Drying under vaccum @50 for 36 hrs [2] | AUClast [3] [ng·h/mL] | Cmax [3] [ng/mL] | Tmax [3] [h] | Solubility (in words) [4] | Exposure in preclinical toxicology studies (in words) [5] | Hygroscopicity (in words) [1] | Pharmacokinetic profile (in words) ([3]; dogs, compared with other salts) | Exposure compared with free acid and potassium salt dosed as solutions (in words) ([3]; dogs, powder in a capsule (PIC))
[K+] [Potassium] | 8-22.5% | changes | 966 | 398 | 1.25 | soluble | high exposure | – | – | –
CNCC(O)C(O)C(O)C(O)CO.Cc1c(C(=O)O)sc2nc(Cc3ccc(Cl)c(Cl)c3)[nH]c(=O)c12.O [compound 4, meglumine 2-(3,4-dichlorobenzyl)-5-methyl-4-oxo-3,4-dihydrothieno[2,3-d]pyrimidine-6-carboxylate monohydrate] | 0.7% | unchanged | 1008 | 280 | 1.13 | – | – | low hygroscopicity | superior pharmacokinetic profile | comparable exposure
Cc1c(C(=O)O)sc2nc(Cc3ccc(Cl)c(Cl)c3)[nH]c(=O)c12.N=C(N)NCCC[C@H](N)C(=O)O [compound 8, arginine 2-(3,4-dichlorobenzyl)-5-methyl-4-oxo-3,4-dihydrothieno[2,3-d]pyrimidine-6-carboxylate] | 5.9% | changes | 705 | 246 | 1.38 | – | – | – | – | –
Cc1c(C(=O)O)sc2nc(Cc3ccc(Cl)c(Cl)c3)[nH]c(=O)c12.NCCCC[C@H](N)C(=O)O [compound 9, lysine 2-(3,4-dichlorobenzyl)-5-methyl-4-oxo-3,4-dihydrothieno[2,3-d]pyrimidine-6-carboxylate] | 6.4% | changes | 495 | 78.4 | 3.50 | – | – | – | – | –
